This is an account of results in patent US10059695B2, “Cot modulators and methods of use thereof” (Gilead Sciences, Inc., priority 2016, dated 2018).

The target of one assay is Human Cot (Homo sapiens (Human), UniProt P41279). As to the kind of experiment: High Throughput Cot Biochemical Assay (KinEASE TR-FRET). Conditions: recombinant human Cot catalytic domain, 400 μM ATP. Here is the method: Example 24: High Throughput Cot Biochemical Assay
Human Cot enzyme activity was measured using KinEASE (Cisbio), a time-resolved fluorescence resonance energy transfer (TR-FRET) immunoassay. In this assay, Cot-catalyzes the phosporylation of a XL665-labeled peptide substrate. Europium conjugated […] specific antibody binds the resulting phosphorylated peptide. Formation of phosphorylated peptide is quantified by TR-FRET with Europium as the donor and XL665 the acceptor in a 2-step endpoint assay. Purified recombinant human Cot catalytic domain (30-397 amino acids) was purchased from Carna Biosciences. In brief, test compounds serially diluted in DMSO were delivered into Proxy white, low volume, 384 well plates using the Echo 550 acoustic liquid dispenser (Labcyte®). Cot enzyme and substrates were dispensed into assay plates using a Multi-Flo (Bio-Tek Instruments). The standard 5 μL reaction mixture contained 400 μM ATP, 1 μM STK3 peptide, 5 nM of Cot in reaction buffer (10 mM MOPS, pH 7.0, 0.02% NaN3, 0.5 mg/mL BSA, 10 mM MgOAc, 1 mM DTT, 0.025% NP-40, 1.5% glycerol) and 0.1% DMSO. After 2.5 hrs of incubation at room temperature, 5 μL of Stop and Detect Solution (1:200 Europium Cryptate labeled anti-phosphorylated peptide antibody solution and 125 nM strepavidin-XL665 Tracer in a 50 mM Hepes pH 7.0 detection buffer containing sufficient EDTA) was added. The plate was then further incubated for 120 minutes at room temperature and read using an Envision 2103 Multilabeled reader (PerkinElmer) with excitation/emission/FRET emission at 340 nm/615 nm/665 nm, respectively. Fluorescence intensities at 615 nm and 665 nm emission wavelengths were expressed as a ratio (665 nm/615 nm).

In a further assay the test system is TNFα. The assay is described as follows: Cot Monocyte TNFα Cell Based Assay. Conditions: LPS-stimulated cryopreserved human monocytes, TNFα by TR-FRET. The procedure: Example 23: Cot Monocyte TNFα Cell Based Assay
Cryopreserved human monocytes (Stem Cell Technologies) were thawed, diluted in RPMI with Glutamax (10 mM HEPES, 1× Pen-Strep, 55 μM β-mercaptoethanol, 1 mM Sodium pyruvate) media containing 10% FBS to 0.125×10^6 cells/ml and recovered at 37° C. for 2 hours. The cell suspension was then plated at a density of 5,000 cells/well onto black 384 well Greiner clear bottom plates. Plates were pre-spotted with test compounds and serially diluted in DMSO where 200 nL/well were delivered using the Echo 550 acoustic liquid dispenser (Labcyte®) for a final DMSO concentration of 0.5%. Plated cells were treated with compound for 1 hour at 37° C. Cells were then stimulated with 50 μg/ml of LPS (Sigma) excluding outside columns of plate used for unstimulated cell control wells. Cells were incubated for an additional 4 hours at 37° C. Cells were then spun out of the media and 5 μl of sample were taken and analyzed for total TNFα content using the TR-FRET Human TNFα detection system (CisBio). This system utilizes two labeled antibodies (cryptate and XL665) that bind to two different epitopes of the TNFα molecule and produce FRET signal proportional to the concentration of TNFα in the sample. Detection antibodies are mixed 50:50 and 5 μL were dispensed into each well. Plates were covered with clear seals and incubated at room temp overnight. The following morning plates were read using an Envision 2103 Multilabeled reader (PerkinElmer) with excitation/emission/FRET emission at 340 nm/615 nm/665 nm, respectively. Fluorescence intensities at 615 nm and 665 nm emission wavelengths were expressed as a ratio (665 nm/615 nm). Percent of control was calculated as follows: % Control=100×(RatioSample−Ratio0% stimulation)/(Ratio100% Stimulation−Ratio0% Stimulation) where unstimulated cells (0% stimulation) were the negative control and stimulated cells (100% stimulation) were used as the positive control.

Chain of Human Cot (P41279 30-397): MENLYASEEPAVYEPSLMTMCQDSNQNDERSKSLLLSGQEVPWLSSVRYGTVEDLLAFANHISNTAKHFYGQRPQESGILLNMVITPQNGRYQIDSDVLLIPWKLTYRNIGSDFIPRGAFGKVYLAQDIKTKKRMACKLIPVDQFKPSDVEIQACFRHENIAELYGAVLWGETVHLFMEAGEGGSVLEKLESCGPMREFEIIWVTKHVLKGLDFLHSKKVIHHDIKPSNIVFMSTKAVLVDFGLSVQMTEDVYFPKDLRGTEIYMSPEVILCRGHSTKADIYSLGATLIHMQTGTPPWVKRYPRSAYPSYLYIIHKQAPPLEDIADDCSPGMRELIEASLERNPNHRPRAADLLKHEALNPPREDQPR

As to `Fc1ccc(Nc2ncnc3c(Cl)cc(N[C@@H](c4ccccc4)c4cn(C5CCNCC5)nn4)cc23)cc1Cl` [II-9, (S)-8-chloro-N4-(3-chloro-4-fluorophenyl)-N6-(phenyl(1-(piperidin-4-yl)-1H-1,2,3-triazol-4-yl)methyl) quinazoline-4,6-diamine], on Human Cot, the half-maximal inhibitory concentration (IC50) was 8.3 nM. Besides, in the assay on TNFα, the EC50 came to 337 nM.
For `[2H]C(Nc1ccc2ncnc(NC(CC#N)c3ccccc3)c2c1)(c1ccc(F)cc1)c1cn(C2CC2)nn1` [I-5, 3-((6-(((S)-(1-cyclopropyl-1H-1,2,3-triazol-4-yl)(4-fluorophenyl)methyl-d)amino)quinazolin-4-yl)amino)-3-phenylpropanenitrile], the IC50 on Human Cot turned out to be 53 nM. Also, the response with TNFα was half-maximal at 2500 nM (EC50).
As to `[2H][C@](Nc1cc(Br)c2ncnc(NCC(C)(C)C)c2c1)(c1ccc(F)cc1)c1cn(C2CC2)nn1` [I-15, (S)-8-bromo-N6-((1-cyclopropyl-1H-1,2,3-triazol-4-yl)(4-fluorophenyl)methyl-d)-N4-neopentylquinazoline-4,6-diamine], the IC50 on Human Cot was found to be 2.6 nM. This compound showed an EC50 in the assay on TNFα of 82 nM.
On the same counts, the results for `Cn1ccc2c([C@H](Nc3cc(Cl)c4ncnc(NCC(C)(C)C)c4c3)c3cn(C4(C(F)F)CC4)nn3)cccc2c1=O` [I-25, (S)-5-(((8-chloro-4-(neopentylamino)quinazolin-6-yl)amino)(1-(1-(difluoromethyl)cyclopropyl)-1H-1,2,3-triazol-4-yl)methyl)-2-methylisoquinolin-1(2H)-one] are 2.4 nM and 25.5 nM.
Taken in the same sequence, the figures for `[2H][C@@](Nc1cc(C#N)c2ncnc(NCC(C)(C)C)c2c1)(c1cn(C2(C#N)CC2)nn1)c1ccccc1Cl` [I-20, (S)-6-(((2-chlorophenyl)(1-(1-cyanocyclopropyl)-1H-1,2,3-triazol-4-yl)methyl-d)amino)-4-(neopentylamino) quinazoline-8-carbonitrile] were 3.3 nM and 35 nM.
On the same counts, the results for `[2H][C@](c1ccc(F)cc1)(c1cn(C2CC2)nn1)N(CC)c1ccc2ncnc(NCC(C)(C)C)c2c1` [I-6, (S)-N6-((1-cyclopropyl-1H-1,2,3-triazol-4-yl)(4-fluorophenyl)methyl-d)-N6-ethyl-N4-neopentylquinazoline-4,6-diamine] are 276 nM and 4230 nM.
For `[2H][C@](Nc1ccc2ncnc(N[C@H](CC)c3ccccc3)c2c1)(c1ccc(F)cc1)c1cn(C2CC2)nn1` [I-4, N^6-((S)-(1-cyclopropyl-1H-1,2,3-triazol-4-yl)(4-fluorophenyl)methyl-d)-N^4-((R)-1-phenylpropyl) quinazoline-4,6-diamine], the IC50 on Human Cot is 43 nM. This compound also yielded an EC50 in the assay on TNFα of 796 nM.
Taken in the same sequence, the figures for `CC(C)(C)CNc1ncnc2ccc(N[C@H](c3cn(C4CC4)nn3)c3ccccc3Cl)cc12` [I-8, (S)-N^6-((2-chlorophenyl)(1-cyclopropyl-1H-1,2,3-triazol-4-yl)methyl)-N^4-neopentylquinazoline-4,6-diamine] were 13 nM and 169 nM.
On the same counts, the results for `[2H][C@](Nc1cc(Cl)c2ncnc(NCC(C)(C)C)c2c1)(c1ccc(F)cc1)c1cn(C2(CF)CC2)nn1` [I-16, (S)-8-chloro-N^6-((1-(1-(fluoromethyl)cyclopropyl)-1H-1,2,3-triazol-4-yl)(4-fluorophenyl)methyl-d)-N^4-neopentylquinazoline-4,6-diamine] are 3.1 nM and 46 nM.
On the same counts, the results for `CCN1CCC(n2cc([C@@H](Nc3cc(Cl)c4ncnc(Nc5ccc(F)c(Cl)c5)c4c3)c3ccccc3)nn2)CC1` [II-4, (S)-8-chloro-N^4-(3-chloro-4-fluorophenyl)-N^6-((1-(1-ethylpiperidin-4-yl)-1H-1,2,3-triazol-4-yl)(phenyl)methyl) quinazoline-4,6-diamine] are 5.9 nM and 254 nM.
Regarding `[2H][C@](Nc1cc(Cl)c2ncnc(N[C@H](CCC#N)c3ccccc3)c2c1)(c1ccc(F)cc1)c1cn(C2(C(F)(F)F)CC2)nn1` [I-12, (R)-4-((8-chloro-6-(((S)-(4-fluorophenyl)(1-(1-(trifluoromethyl)cyclopropyl)-1H-1,2,3-triazol-4-yl)methyl-d)amino)quinazolin-4-yl)amino)-4-phenylbutanenitrile], the IC50 on Human Cot was found to be 137 nM. This compound yielded an EC50 in the assay with TNFα of over 1000 nM.
On the same counts, the results for `[2H][C@](Nc1ccc2ncnc(NCC(C)(C)C)c2c1)(c1cccc(C#N)c1)c1cn(C2CC2)nn1` [I-7, (S)-3-((1-cyclopropyl-1H-1,2,3-triazol-4-yl)((4-(neopentylamino)quinazolin-6-yl)amino)methyl-d)benzonitrile] are 2.6 nM and 102 nM.
`CCN1CCC(n2cc([C@@H](Nc3cc(Cl)c4ncnc(Nc5ccc(F)c(Cl)c5)c4c3)c3ccc(Cl)cc3)nn2)CC1` [II-10, (S)-8-chloro-N^4-(3-chloro-4-fluorophenyl)-N^6-((4-chlorophenyl)(1-(1-ethylpiperidin-4-yl)-1H-1,2,3-triazol-4-yl)methyl) quinazoline-4,6-diamine]: the IC50 at Human Cot turned out to be 17 nM. In addition, in the assay with TNFα, the EC50 came out at 527 nM.
Take `[2H][C@@](Nc1cc(Cl)c2ncnc(NCC(C)(C)C)c2c1)(c1cn(CC(=O)O)nn1)c1ccccc1Cl` [I-10, (S)-2-(4-(((8-chloro-4-(neopentylamino)quinazolin-6-yl)amino)(2-chlorophenyl)methyl-d)-1H-1,2,3-triazol-1-yl)acetic acid]: at Human Cot, the IC50 was determined as 13 nM. The compound also came in with an EC50 in the assay on TNFα of over 1000 nM.
For the compound `Cc1nc(F)ccc1[C@H](Nc1cc(C#N)c2ncnc(NCC(C)(C)C)c2c1)c1cn(C2(C(F)F)CC2)nn1` [I-22, (S)-6-(((1-(1-(difluoromethyl)cyclopropyl)-1H-1,2,3-triazol-4-yl)(6-fluoro-2-methylpyridin-3-yl)methyl)amino)-4-(neopentylamino) quinazoline-8-carbonitrile], the IC50 on Human Cot is 1.7 nM. The same compound registered an EC50 in the assay with TNFα of 36 nM.
`Fc1ccc(Nc2ncnc3ccc(N[C@@H](c4ccc(Cl)cc4)c4cn(C5CCN(C6COC6)CC5)nn4)cc23)cc1Cl` [II-8, (S)-N4-(3-chloro-4-fluorophenyl)-N6-((4-chlorophenyl)(1-(1-(oxetan-3-yl)piperidin-4-yl)-1H-1,2,3-triazol-4-yl)methyl) quinazoline-4,6-diamine]: the IC50 at Human Cot came out at 318 nM. It took 1240 nM to reach a half-maximal effect in the assay with TNFα (EC50).
